The values below come from PubChem BioAssay (NCI).

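Interpolation was linear, between the two tested concentrations surrounding the appropriate level; five concentrations were tested over 48 hours in 96-well plates. TGI marks complete inhibition of growth.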 Bounds are passed on as bounds.

Some test systems named below: XF 498 CNS; M19-MEL melanoma; SNB-78 CNS; HOP-18 NSCLC; LXFL 529 NSCLC; SN12K1 renal; P388 leukemia; RXF-631 renal.
Test in all cases: NCI tumour cell line growth inhibition, 48 h

As for `CC(=O)Nc1ccc(C(=O)N2N=C(C)/C(=C/c3ccc(O)cc3)C2=O)cc1`, the TGI in the assay on XF 498 CNS, with M19-MEL melanoma and in the assay on SNB-78 CNS was > 100 µM throughout.

For the compound `OC12CCCCCC1(N1CCOCC1)c1ccccc12` (centres undefined), the TGI in the assay on HOP-18 NSCLC, in the assay on M19-MEL melanoma, in the assay on SNB-78 CNS and with LXFL 529 NSCLC was > 100 µM each time.

Turning to `Nc1c(N=Nc2ccc(-c3ccc(N=Nc4c(O)ccc5cc(S(=O)(=O)O)cc(S(=O)(=O)O)c45)cc3)cc2)c(S(=O)(=O)O)cc2cc(S(=O)(=O)O)c(N=Nc3ccccc3)c(O)c12`, the TGI with SN12K1 renal, with P388 leukemia, with HOP-18 NSCLC, with XF 498 CNS, in the assay with M19-MEL melanoma and with SNB-78 CNS was > 100 µM in each case.

For the compound `Cc1cc2occ(-c3ccc(Cl)cc3)c2c(=O)o1`, the TGI in the assay on RXF-631 renal, in the assay on HOP-18 NSCLC, in the assay on SNB-78 CNS and with LXFL 529 NSCLC was > 100 µM each time.

For the compound `O=S1(=O)CCN(c2ccccc2CC(c2c[nH]c3ccccc23)c2c[nH]c3ccccc23)CC1`, the TGI with HOP-18 NSCLC was 32.7 µM; with M19-MEL melanoma, 23 µM; with SNB-78 CNS, 74.3 µM; with LXFL 529 NSCLC, 25.7 µM.

Regarding `Cc1cc(=O)[nH]c(NNC(C#N)c2ccc([N+](=O)[O-])cc2)n1` (centres undefined), the TGI with HOP-18 NSCLC, in the assay on M19-MEL melanoma, in the assay with SNB-78 CNS and in the assay with LXFL 529 NSCLC was > 100 µM each time.

On to `CC(C)(C)CC(C)(C)c1ccc(OCCOCC[N+](C)(C)Cc2ccccc2)cc1`, for which the figures for the TGI in the assay on RXF-631 renal, in the assay on HOP-18 NSCLC and in the assay with SNB-78 CNS were 34.2 µM, 7.32 µM and 4.26 µM, respectively.

Take `COc1ccc(-c2c3ccccc3c(-c3ccc(OCCCCCBr)cc3)c3ccccc23)cc1`: the TGI in the assay on M19-MEL melanoma and in the assay with LXFL 529 NSCLC was > 100 µM each time.

With `COC(=O)n1c(C[P+](c2ccccc2)(c2ccccc2)c2ccccc2)cc2ccccc21`, the TGI with XF 498 CNS is 6.09 µM; in the assay on M19-MEL melanoma, 13.1 µM; with SNB-78 CNS it was 17.9 µM; in the assay on LXFL 529 NSCLC, 3.73 µM.

Consider `CCOc1ccc(-c2oc(/C=N/NS(=O)(=O)c3ccc(C)cc3)c([N+](=O)[O-])c2-c2ccc(OCC)cc2)cc1`, for which the TGI in the assay on M19-MEL melanoma stood at 13.3 µM; with SNB-78 CNS, 34.6 µM; in the assay with LXFL 529 NSCLC it was 26.6 µM.

As to `CCN(CC)CCCCC1CCN(CC(=O)N2c3ccccc3NC(=O)CC2C)CC1` (centres undefined), the TGI in the assay on RXF-631 renal, with HOP-18 NSCLC, in the assay on M19-MEL melanoma, in the assay on SNB-78 CNS and with LXFL 529 NSCLC was > 100 µM in each case.

Take `CC(=O)NC1=C(NCC(C)C)C(=O)c2ccccc2C1=O`: the TGI worked out at 29.5 µM with HOP-18 NSCLC; 27 µM with XF 498 CNS; 34.2 µM in the assay on M19-MEL melanoma; 89.1 µM with SNB-78 CNS; 34.4 µM in the assay with LXFL 529 NSCLC.

With `O=c1c2c(nc3n1CCC3)sc1c(O)c(Br)ccc12`, the TGI in the assay with HOP-18 NSCLC was > 100 µM; in the assay with XF 498 CNS it was 36.8 µM; in the assay on M19-MEL melanoma, 32.8 µM; with SNB-78 CNS, > 100 µM.

Turning to `C/C(=C\Cc1cc(O)ccc1O)CCc1c(C)cc(O)c(C=O)c1C`, the TGI with HOP-18 NSCLC was determined as 53.4 µM; in the assay on XF 498 CNS, 45.2 µM; in the assay with LXFL 529 NSCLC, 30.2 µM.
